Reference: patent US8063225B2, “Tricyclic compound derivatives useful in the treatment of neoplastic diseases, inflammatory disorders and immunomodulatory disorders” (Chembridge Corporation, priority 2006, dated 2011)

Key:
Format in all cases: cell-based
SKMM2 = test: Cell proliferation inhibition, MTT assay, SKMM2; conditions: Homo sapiens, SK-MM-2, 72 h, SKMM2 multiple myeloma cells, 3-day proliferation
Source text: (§1) IGF1R and other tyrosine kinase inhibitors can inhibit the proliferation of certain cancer cell lines indicating their possible therapeutic utility for treating the corresponding cancer types. Cancer cell lines of interest and control normal lines, including CHO, HEK293, BA/F3, COLO205, PC3, DU145, MCF7, Panc1, ACHN, Hep G2, H460, K562, TT, U87-MG, CAOV-3, SK-MEL5, Karpas 299 and human multiple myeloma cell lines H929, MM1s, MM1r, UTMC2, CPM2, KMS11, My5, KMS12PE, My7, JJN3, KMS18, U266, SKMM2, RPMI-8226 are plated in white, clear-bottomed 384-well cell culture plates at 2500-5000 cells per well and supplied with dilutions of tested compounds After a desired period of time (typically 3 days), the number of viable cells is quantitated by using Cell Titer-Glo Luminescent Cell Viability Assay (Promega), a cell proliferation assay system based on detection of total amount of ATP present as a measure of cell metabolic activity. The plated cells are mixed with the Cell Titer-Glo developing reagent and counted in a luminescence multiwell plate reader according to the standard manufacturer's protocol to generate IC50 curves for cell proliferation inhibition. Results are typically reported as percent of growth (% viability =(OD72h(compound)−ODday0))/(OD72h(no compound)−ODday0). Alternatively, viable cells are quantitated by using the conventional colorimetric MTT assay. The MTT assay is based on the cleavage of the yellow tetrazolium salt MTT to purple formazan crystal by metabolic active cells. The formazan is then solubilized, and the concentration determined by optical density at 570 nm. The cells plated and incubated with a compound as described above are supplemented with the solution of MTT and incubated for 2-3 hours. The growth medium is removed and dimethyl sulfoxide is added into each well to dissolve the formazan. The absorbance is measured on an ELISA plate reader with a test wavelength of 570 nm and a background subtraction wavelength of 630 nm to obtain sample signal (OD570-OD630). […] The results are reported in terms of IC50 value for a particular compound and a cell line in the standard 3-day proliferation assay using Cell Titer-Glo. […] The results are reported in terms of IC50 value for a particular compound and a cell line in the standard 3-day proliferation assay using MTT assay.

U266 = test: Cell proliferation inhibition, MTT assay, U266; conditions: Homo sapiens, U-266, 72 h, U266 multiple myeloma cells, 3-day proliferation
Source text: as §1

KMS12PE = test: Cell proliferation inhibition, MTT assay, KMS12PE; conditions: Homo sapiens, 72 h, KMS-12PE multiple myeloma cells, 3-day proliferation
Source text: as §1

My7 = test: Cell proliferation inhibition, MTT assay, My7; conditions: Homo sapiens, Multiple myeloma cell, 72 h, My7 multiple myeloma cells, 3-day proliferation
Source text: as §1

JJN3 = test: Cell proliferation inhibition, MTT assay, JJN3; conditions: Homo sapiens, JJN-3, 72 h, JJN3 multiple myeloma cells, 3-day proliferation
Source text: as §1

KMS18 = test: Cell proliferation inhibition, MTT assay, KMS18; conditions: Homo sapiens, 72 h, KMS18 multiple myeloma cells, 3-day proliferation
Source text: as §1

My5 = test: Cell proliferation inhibition, MTT assay, My5; conditions: Homo sapiens, Multiple myeloma cell, 72 h, My5 multiple myeloma cells, 3-day proliferation
Source text: as §1

RPMI-8226 = test: Cell proliferation inhibition, MTT assay, RPMI-8226; conditions: Homo sapiens, 72 h, RPMI-8226 multiple myeloma cells, 3-day proliferation
Source text: as §1

SMILES	IC50 (SKMM2)	IC50 (U266)	IC50 (RPMI-8226)	IC50 (KMS12PE)	IC50 (My7)	IC50 (JJN3)	IC50 (KMS18)	IC50 (My5)
Cc1ccc(OCC(=O)CNc2cc[nH]c(=O)c2-c2nc3cc4c(cc3[nH]2)CN(C2CCN(C)CC2)C4=O)c(C)c1 [drawing 845]	5 to 20 µM	1 to 5 µM	5 to 20 µM	1 to 5 µM	1 to 5 µM	1 to 5 µM	1 to 5 µM	1 to 5 µM
Cc1ccc(OCC(=O)CNc2cc[nH]c(=O)c2-c2nc3cc4c(cc3[nH]2)CN(CCCN2CCCC2)C4=O)c(C)c1 [drawing 847]	5 to 20 µM	5 to 20 µM	5 to 20 µM	5 to 20 µM	5 to 20 µM	5 to 20 µM	5 to 20 µM	5 to 20 µM

Further lines, with some results ahead:

IC50 (SKMM2)	IC50 (U266)	IC50 (RPMI-8226)	SMILES	IC50 (KMS12PE)	IC50 (My7)	IC50 (JJN3)	IC50 (KMS18)	IC50 (My5)
5 to 20 µM	1 to 5 µM	5 to 20 µM	CCc1cc2c(cc1OCC(=O)CNc1cc[nH]c(=O)c1-c1nc3cc4c(cc3[nH]1)C(=O)N(C1CCN(C)CC1)C4)OCO2 [drawing 849]	5 to 20 µM	1 to 5 µM	1 to 5 µM	1 to 5 µM	5 to 20 µM
1 to 5 µM	1 to 5 µM	5 to 20 µM	CN1CCC(N2Cc3cc4[nH]c(-c5c(NCC(=O)COc6ccccc6Br)cc[nH]c5=O)nc4cc3C2=O)CC1 [drawing 848]	1 to 5 µM	1 to 5 µM	1 to 5 µM	0.5 to 1 µM	1 to 5 µM
5 to 20 µM	1 to 5 µM	5 to 20 µM	COc1ccc(OCC(=O)CNc2cc[nH]c(=O)c2-c2nc3cc4c(cc3[nH]2)C(=O)N(C2CCN(C)CC2)C4)c(Cl)c1 [drawing 850]	1 to 5 µM	5 to 20 µM	1 to 5 µM	1 to 5 µM	5 to 20 µM
